# Measurements reported in patent US20250230149A1, “MGLUR5 MODULATING COMPOUNDS, COMPOSITIONS, AND METHODS OF USE” (Allyx Therapeutics, Inc., priority 2022, published 2025).
# pKi: −log10 of the molar value. Entries after “also recorded” stand apart in the source; their conditions may differ.
# Assays:
# [1] = Solubility in EtOAc/heptane mixtures by HPLC; type: physicochemical; details: organic solvent or mixture, thermodynamic from solid
# Description: Solubility data were generated applying the following protocol: slurries of Compound 1 were prepared and allowed to equilibrate at 20° C. under stirring for about 18 hours. To determine the concentration in supernatant, about 0.1 mL of slurry was sampled with syringe, filtered, weighed, diluted with MeCN, and injected into an HPLC. […] Samples were cooled to 20° C., and solid residues were isolated by filtration on 20-μm PTFE filter, dried under vacuum at 40° C., and submitted to XRPD analysis. Compound 1 peak area for each sample was recorded, and solubility data were calculated using previously determined response factor (245 nm, 1460 mAU*sec/mg/mL, Table 7). The data were combined and visualized on chart with the solubility as function of the percentage of heptane by volume. […] Solubility smoothly decreases with the increase in heptane amount.
# CYP2C9 = biological target: T1, CYP2C9 (Homo sapiens, UniProt P11712); test: CYP450 reaction phenotyping in Supersomes, CYP2C9; type: in vitro ADME
# T1 construct: purchased
# T1 sequence (P11712 whole entry): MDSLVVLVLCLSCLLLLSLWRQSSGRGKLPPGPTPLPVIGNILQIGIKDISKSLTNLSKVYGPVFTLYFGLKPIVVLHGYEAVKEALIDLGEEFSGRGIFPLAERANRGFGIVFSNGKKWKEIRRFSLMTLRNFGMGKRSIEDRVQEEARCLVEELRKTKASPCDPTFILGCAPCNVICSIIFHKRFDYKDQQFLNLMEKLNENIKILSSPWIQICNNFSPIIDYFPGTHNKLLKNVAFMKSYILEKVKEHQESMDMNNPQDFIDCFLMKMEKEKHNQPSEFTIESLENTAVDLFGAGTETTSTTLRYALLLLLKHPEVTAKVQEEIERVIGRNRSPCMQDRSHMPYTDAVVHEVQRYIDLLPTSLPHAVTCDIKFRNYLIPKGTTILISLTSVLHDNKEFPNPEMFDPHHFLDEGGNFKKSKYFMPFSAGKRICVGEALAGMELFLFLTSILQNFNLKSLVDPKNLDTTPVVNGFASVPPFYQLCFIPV
# Description: (§1) In Vitro CYP450 Reaction Phenotyping Study in Supersomes™ Over-Expressing Human CYP Enzymes
# (§2) The CYPP450 enzymes involved in the Phase I metabolism of Compound 1 Form A were investigated in vitro. Compound 1 Form A was metabolized by CYP1A2, CYP2D6 and CYP3A4 and with T1/2 values of 64, 14, and 176 min, respectively, and CLint of 0.261, 0.984 and 0.0786 μL/min/pmol CYP, respectively. No evidence of Compound 1 metabolism by CYP2B6, CYP2C8, CYP2C9 and CYP2C19 was observed.
# CYP2C19 = CYP2C19 (Homo sapiens, UniProt P33261); test: CYP450 reaction phenotyping in Supersomes, CYP2C19; type: in vitro ADME
# Sequence of CYP2C19 (P33261 whole entry): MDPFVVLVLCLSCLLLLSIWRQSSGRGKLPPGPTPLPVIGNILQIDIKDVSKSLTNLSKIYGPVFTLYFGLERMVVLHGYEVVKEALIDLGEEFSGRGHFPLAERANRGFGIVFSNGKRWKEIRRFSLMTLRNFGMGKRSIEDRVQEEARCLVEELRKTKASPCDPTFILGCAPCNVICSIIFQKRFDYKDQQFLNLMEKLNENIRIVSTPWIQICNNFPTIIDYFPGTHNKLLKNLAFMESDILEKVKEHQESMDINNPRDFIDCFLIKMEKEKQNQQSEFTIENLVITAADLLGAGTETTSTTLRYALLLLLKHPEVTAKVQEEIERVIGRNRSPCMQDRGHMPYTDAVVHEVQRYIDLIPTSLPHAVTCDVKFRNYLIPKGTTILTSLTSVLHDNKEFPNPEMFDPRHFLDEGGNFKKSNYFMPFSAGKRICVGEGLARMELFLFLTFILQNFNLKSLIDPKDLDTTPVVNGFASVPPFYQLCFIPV
# Description: as §1, §2
# [2] = biological target: pregnane X receptor (PXR) (Rattus norvegicus, UniProt Q9R1A7); test: PXR receptor activation, rat; type: in vitro ADME; details: at 30 μM
# Sequence of pregnane X receptor (PXR) (Q9R1A7 whole entry): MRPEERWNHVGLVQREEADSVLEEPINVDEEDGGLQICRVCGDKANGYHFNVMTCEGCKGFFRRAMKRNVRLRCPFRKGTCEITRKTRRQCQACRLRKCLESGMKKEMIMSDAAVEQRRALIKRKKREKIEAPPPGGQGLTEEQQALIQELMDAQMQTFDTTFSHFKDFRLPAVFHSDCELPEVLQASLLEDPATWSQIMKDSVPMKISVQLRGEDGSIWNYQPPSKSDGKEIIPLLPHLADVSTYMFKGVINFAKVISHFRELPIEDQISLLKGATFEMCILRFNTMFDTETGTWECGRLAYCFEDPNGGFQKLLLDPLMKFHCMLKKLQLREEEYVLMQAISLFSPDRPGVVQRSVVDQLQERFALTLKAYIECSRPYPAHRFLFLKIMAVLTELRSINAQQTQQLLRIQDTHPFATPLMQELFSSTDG
# From the text: The objective of this study was to determine the human and rat pregnane X receptor (PXR) and human and rat aryl hydrocarbon receptor (AhR) receptor activation potential of Compound 1 Form A. The activation of PXR is a marker for induction of CYP3A4/5 and […] and the activation of AhR is a marker for induction of CYP1A.
# mGluR5 = mGluR5 (Homo sapiens, UniProt P41594); test: [3H]-MPEPy displacement from mGluR5; type: binding; details: read-out: inhibitor constant (Ki) for [3H]-MPEPy displacement from mGluR5
# Sequence of mGluR5 (P41594 21-1212): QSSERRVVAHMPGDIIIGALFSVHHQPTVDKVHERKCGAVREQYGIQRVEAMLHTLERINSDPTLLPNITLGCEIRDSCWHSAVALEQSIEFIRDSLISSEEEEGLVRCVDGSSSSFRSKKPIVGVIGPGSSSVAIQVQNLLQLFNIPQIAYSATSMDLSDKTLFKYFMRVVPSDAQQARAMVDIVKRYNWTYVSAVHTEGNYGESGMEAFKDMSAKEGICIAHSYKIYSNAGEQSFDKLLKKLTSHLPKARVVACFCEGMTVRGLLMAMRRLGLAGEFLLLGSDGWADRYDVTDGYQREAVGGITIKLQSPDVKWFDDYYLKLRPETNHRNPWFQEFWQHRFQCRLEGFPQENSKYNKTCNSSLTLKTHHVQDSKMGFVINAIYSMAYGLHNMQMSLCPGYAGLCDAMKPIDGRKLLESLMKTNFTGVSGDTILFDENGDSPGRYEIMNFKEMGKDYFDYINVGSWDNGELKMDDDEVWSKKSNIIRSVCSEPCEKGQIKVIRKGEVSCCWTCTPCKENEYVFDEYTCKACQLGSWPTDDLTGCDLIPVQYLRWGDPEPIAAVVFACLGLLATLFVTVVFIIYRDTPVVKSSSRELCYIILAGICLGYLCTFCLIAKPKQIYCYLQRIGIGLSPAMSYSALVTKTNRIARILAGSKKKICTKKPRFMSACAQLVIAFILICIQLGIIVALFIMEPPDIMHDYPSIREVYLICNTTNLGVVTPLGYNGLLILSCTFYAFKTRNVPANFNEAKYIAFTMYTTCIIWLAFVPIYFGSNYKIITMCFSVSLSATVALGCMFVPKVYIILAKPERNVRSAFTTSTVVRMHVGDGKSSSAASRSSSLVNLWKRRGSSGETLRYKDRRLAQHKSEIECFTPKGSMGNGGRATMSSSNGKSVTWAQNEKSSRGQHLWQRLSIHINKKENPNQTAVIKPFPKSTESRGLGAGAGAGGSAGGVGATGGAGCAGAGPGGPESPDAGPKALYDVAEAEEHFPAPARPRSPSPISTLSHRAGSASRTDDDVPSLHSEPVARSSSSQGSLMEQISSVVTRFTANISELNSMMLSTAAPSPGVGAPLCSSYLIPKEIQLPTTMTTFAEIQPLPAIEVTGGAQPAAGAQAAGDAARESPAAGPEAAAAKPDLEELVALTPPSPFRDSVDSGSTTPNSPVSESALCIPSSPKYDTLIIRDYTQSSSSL
# APP/PS1 mice = test: Immunohistochemical staining of SV2A and PSD-95 in APP/PS1 mouse model with washout; type: in vivo
# Description: The objective of this study was to assess synaptic density of control and APP/PS1 mice before and after treatment with Compound 1, and to assess the reversibility of any observed effects following a drug washout period.
# Vehicle (95% polyethylene glycol (PEG) 400/5% solutol) or Compound 1 at 7.5 mg/kg/day (3.75 mg/kg q12) was given to control and APP/PS1 mice for at least 28 days by oral administration. A subset of mice stopped treatment after four weeks, then underwent a four-week washout period.
# Reduced synaptic density in APP/PS1 samples relative to controls was confirmed by immunohistochemical staining of pre- and post-synaptic markers (SV2A and PSD-95) in hippocampal and cortical sections.
# neurons and glia = test: Single nuclei transcriptomics; type: in vivo, mice; details: neurons vs glia
# From the text: Compound 1 (e.g., Form A) prevented Alzheimer's triggered aberrant synaptic signaling while preserving physiological Glu activation. Studies have been conducted to show oral Compound 1 effectively occupied brain mGluR5 sites visualized by [^18F]FPEB PET at doses 250-fold below adverse effect levels in rodent and non-human primate. […] Production of the microglial mediator, C1q, was not altered by Compound 1, but Alzheimer-gene-dependent C1q localization to synapses and synaptic engulfment were prevented. Thus, selective modulation of mGluR5 reversed neuronal gene expression changes to protect synapses from damage by microglial mediators.
# in vivo = test: in vivo
# Description: Six cohorts of 6 participants each received a single oral dose of Compound 1 in the fasted state at the following dose levels: 10, 40, 70, 100, 150, and 200 mg and then were followed for 7 days; the starting dose of 10 mg was <10% of the 140 mg human equivalent dose (HED) of the rat NOAEL in the GLP 28-day rat study of 15 mg/kg.
# C57/BI6J mice = details: single 7.5 mg/kg dose; cited from earlier work
smiles,measurement,setting,value
"O=C1N[C@H](c2cncc(C#Cc3ccccc3)c2)[C@@H](c2ccccc2Cl)O1 [Compound 1, (4R,5R)-5-(2-chlorophenyl)-4-(5-(phenylethynyl)pyridin-3-yl)oxazolidin-2-one]",solubility,"[1]; EtOAc/heptane 20:80 (% v/v), 20° C.",2 mg/mL
same,solubility,"[1]; EtOAc/heptane 20:80 (% v/v), 45° C.",3 mg/mL
same,solubility,"[1]; EtOAc/heptane 32:68 (% v/v), 20° C.",6 mg/mL
same,solubility,"[1]; EtOAc/heptane 32:68 (% v/v), 45° C.",10 mg/mL
same,solubility,"[1]; EtOAc/heptane 40:60 (% v/v), 20° C.",11 mg/mL
same,solubility,"[1]; EtOAc/heptane 40:60 (% v/v), 45° C.",17 mg/mL
same,solubility,"[1]; EtOAc/heptane 50:50 (% v/v), 20° C.",20 mg/mL
same,solubility,"[1]; EtOAc/heptane 50:50 (% v/v), 45° C.",34 mg/mL
same,solubility,"[1]; EtOAc/heptane 60:40 (% v/v), 20° C.",33 mg/mL
same,solubility,"[1]; EtOAc/heptane 60:40 (% v/v), 45° C.",61 mg/mL
same,solubility,"[1]; EtOAc/heptane 70:30 (% v/v), 20° C.",49 mg/mL
same,solubility,"[1]; EtOAc/heptane 70:30 (% v/v), 45° C.",85 mg/mL
same,solubility,"[1]; EtOAc/heptane 80:20 (% v/v), 20° C.",69 mg/mL
same,solubility,"[1]; EtOAc/heptane 80:20 (% v/v), 45° C.",124 mg/mL
same,solubility,"[1]; EtOAc/heptane 90:10 (% v/v), 20° C.",95 mg/mL
same,solubility,"[1]; EtOAc/heptane 90:10 (% v/v), 45° C.",177 mg/mL
same,solubility,"[1]; EtOAc/heptane 100:0 (% v/v), 20° C.",115 mg/mL
same,solubility,"[1]; EtOAc/heptane 100:0 (% v/v), 45° C.",187 mg/mL
same,metabolism by CYP2C9,CYP2C9,No evidence
same,metabolism by CYP2C19,CYP2C19,No evidence
same,mean activation of PXR,[2],4.70 fold
same,pKi,mGluR5,9.22
same,"SV2A and PSD-95 staining in hippocampal and cortical sections, relative to vehicle","APP/PS1 mice; 3.75 mg/kg q12 oral, at least 28 days",significant increases
same,rescue of synaptic density after washout,APP/PS1 mice; one month washout period,persists after drug washout; also recorded: preserved
same,normalization of expression patterns,neurons and glia,to a much greater extent in neurons than glia
same,human equivalent dose (HED) of the rat NOAEL,in vivo,140 mg
same,NOAEL at 28 days,in vivo; rat,15 mg/kg
same,"prevention of PAM-induced seizures, shown previously",C57/BI6J mice,prevents seizures
